Results taken from ChEMBL document CHEMBL1255305, “Affinity of doripenem and comparators to penicillin-binding proteins in Escherichia coli and Pseudomonas aeruginosa” (Antimicrob Agents Chemother, 2008).
Converted amounts (≈) assume the structure as drawn. The source made the active and inactive calls. The rule behind the calls is not given here.

Columns and labels:
[1] = Inhibition of Bocillin FL binding to PBP2 in Pseudomonas aeruginosa PAO1 membranes
[2] = Inhibition of Bocillin FL binding to PBP1B in Escherichia coli MC4100 membranes; assay type: cell membranes
[3] = Inhibition of Bocillin FL binding to PBP1B in Pseudomonas aeruginosa 27853 membranes
[4] = Inhibition of Bocillin FL binding to PBP4 in Pseudomonas aeruginosa PAO1 membranes
[5] = Inhibition of Bocillin FL binding to PBP6 in Escherichia coli MC4100 membranes; assay type: cell membranes
[6] = Inhibition of Bocillin FL binding to PBP4 in Escherichia coli MC4100 membranes; assay type: cell membranes
[7] = Inhibition of Bocillin FL binding to PBP1A in Pseudomonas aeruginosa 27853 membranes
[8] = Inhibition of Bocillin FL binding to PBP2 in Escherichia coli MC4100 membranes; assay type: cell membranes
[9] = Inhibition of Bocillin FL binding to PBP3 in Escherichia coli MC4100 membranes; assay type: cell membranes
[10] = Inhibition of Bocillin FL binding to PBP4 in Pseudomonas aeruginosa 27853 membranes
[11] = Inhibition of Bocillin FL binding to PBP5/6 in Pseudomonas aeruginosa 27853 membranes
[12] = Inhibition of Bocillin FL binding to PBP3 in Pseudomonas aeruginosa PAO1 membranes
[13] = Inhibition of Bocillin FL binding to PBP1A in Pseudomonas aeruginosa PAO1 membranes
[14] = Inhibition of Bocillin FL binding to PBP5/6 in Pseudomonas aeruginosa PAO1 membranes
[15] = Inhibition of Bocillin FL binding to PBP2 in Pseudomonas aeruginosa 27853 membranes
[16] = Inhibition of Bocillin FL binding to PBP1B in Pseudomonas aeruginosa PAO1 membranes
[17] = Inhibition of Bocillin FL binding to PBP5 in Escherichia coli MC4100 membranes; assay type: cell membranes
[18] = Inhibition of Bocillin FL binding to PBP3 in Pseudomonas aeruginosa 27853 membranes
[19] = Inhibition of Bocillin FL binding to PBP1A in Escherichia coli MC4100 membranes; assay type: cell membranes
Pseudomonas aeruginosa [20] = experiment: Antimicrobial activity against Pseudomonas aeruginosa PAO1 by CLSI protocol based broth microdilution method; assay type: functional
Escherichia coli [21] = experiment: Antimicrobial activity against Escherichia coli MC4100 by CLSI protocol based broth microdilution method; assay type: functional
Pseudomonas aeruginosa [22] = experiment: Antimicrobial activity against Pseudomonas aeruginosa 27853 by CLSI protocol based broth microdilution method; assay type: functional
Pseudomonas aeruginosa [23] = experiment: Induction of morphological changes in Pseudomonas aeruginosa 27853 assessed as increase in cell length at antimicrobial MIC after 240 mins by microscopy; assay type: functional, organism-based
Escherichia coli [24] = experiment: Induction of morphological changes in Escherichia coli MC4100 assessed as induction of sphere formation at antimicrobial MIC after 4 hrs by microscopy; assay type: functional, organism-based
Pseudomonas aeruginosa [25] = experiment: Induction of morphological changes in Pseudomonas aeruginosa 27853 assessed as induction of sphere formation at antimicrobial MIC after 60 mins by microscopy; assay type: functional, organism-based
Pseudomonas aeruginosa [26] = experiment: Induction of morphological changes in Pseudomonas aeruginosa 27853 assessed as induction of sphere formation at antimicrobial MIC after 240 mins by microscopy; assay type: functional, organism-based
Pseudomonas aeruginosa [27] = experiment: Induction of morphological changes in Pseudomonas aeruginosa 27853 assessed as increase in cell length at antimicrobial MIC after 60 mins by microscopy; assay type: functional, organism-based

| Compound | IC50 [1] | IC50 [2] | IC50 [3] | IC50 [4] | IC50 [5] | IC50 [6] | IC50 [7] | IC50 [8] | IC50 [9] | IC50 [10] | IC50 [11] | IC50 [12] | IC50 [13] | IC50 [14] | IC50 [15] | IC50 [16] | IC50 [17] | IC50 [18] | IC50 [19] | MIC (Pseudomonas aeruginosa [20]) | further results |
| --- | --- | --- | --- | --- | --- | --- | --- | --- | --- | --- | --- | --- | --- | --- | --- | --- | --- | --- | --- | --- | --- |
| C[C@H]1[C@H](NC(=O)/C(=N\OC(C)(C)C(=O)O)c2csc(N)n2)C(=O)N1S(=O)(=O)O [AZTREONAM] | 16 µg/mL (≈ 36.7 µM) | > 8 µg/mL | 2 µg/mL (≈ 4.59 µM) | 16 µg/mL (≈ 36.7 µM) | > 8 µg/mL | > 8 µg/mL | 2 µg/mL (≈ 4.59 µM) | > 8 µg/mL | 0.03 µg/mL (≈ 0.0689 µM) | > 4 µg/mL | > 4 µg/mL | 0.03 µg/mL (≈ 0.0689 µM) | 2 µg/mL (≈ 4.59 µM) | > 16 µg/mL | 4 µg/mL (≈ 9.19 µM) | 2 µg/mL (≈ 4.59 µM) | > 8 µg/mL | < 0.02 µg/mL | > 8 µg/mL | – | – |
| CC(C)(O/N=C(\C(=O)N[C@@H]1C(=O)N2C(C(=O)[O-])=C(C[n+]3ccccc3)CS[C@H]12)c1csc(N)n1)C(=O)O [CEFTAZIDIME] | > 32 µg/mL | 1.1 µg/mL (≈ 2.01 µM) | 1.6 µg/mL (≈ 2.93 µM) | 2 µg/mL (≈ 3.66 µM) | > 4 µg/mL | > 4 µg/mL | 0.3 µg/mL (≈ 0.549 µM) | 4 µg/mL (≈ 7.32 µM) | 0.07 µg/mL (≈ 0.128 µM) | 2 µg/mL (≈ 3.66 µM) | > 4 µg/mL | 0.1 µg/mL (≈ 0.183 µM) | 0.2 µg/mL (≈ 0.366 µM) | > 32 µg/mL | 4 µg/mL (≈ 7.32 µM) | 3 µg/mL (≈ 5.49 µM) | > 4 µg/mL | 0.1 µg/mL (≈ 0.183 µM) | 1.1 µg/mL (≈ 2.01 µM) | 1 µg/mL (≈ 1.83 µM) | MIC (Escherichia coli [21]): 0.12 µg/mL (≈ 0.22 µM); MIC (Pseudomonas aeruginosa [22]): 1 µg/mL (≈ 1.83 µM) |
| C[C@@H](O)[C@H]1C(=O)N2C(C(=O)O)=C(S[C@@H]3CN[C@H](CNS(N)(=O)=O)C3)[C@H](C)[C@H]12 [DORIPENEM] | 0.06 µg/mL (≈ 0.143 µM) | 1.2 µg/mL (≈ 2.85 µM) | 0.6 µg/mL (≈ 1.43 µM) | 0.008 µg/mL (≈ 0.019 µM) | 1 µg/mL (≈ 2.38 µM) | 0.02 µg/mL (≈ 0.0476 µM) | 0.8 µg/mL (≈ 1.9 µM) | 0.008 µg/mL (≈ 0.019 µM) | 2 µg/mL (≈ 4.76 µM) | < 0.008 µg/mL | > 4 µg/mL | 0.07 µg/mL (≈ 0.166 µM) | 0.5 µg/mL (≈ 1.19 µM) | 8 µg/mL (≈ 19 µM) | 0.04 µg/mL (≈ 0.0951 µM) | 0.6 µg/mL (≈ 1.43 µM) | 4 µg/mL (≈ 9.51 µM) | 0.06 µg/mL (≈ 0.143 µM) | 1.2 µg/mL (≈ 2.85 µM) | 0.25 µg/mL (≈ 0.595 µM) | Activity (Pseudomonas aeruginosa [23]): Active; MIC (Escherichia coli [21]): 0.03 µg/mL (≈ 0.0713 µM); MIC (Pseudomonas aeruginosa [22]): 0.25 µg/mL (≈ 0.595 µM); Activity (Escherichia coli [24]): Active; Activity (Pseudomonas aeruginosa [25]): Active |
| C[C@@H](O)[C@H]1C(=O)N2C(C(=O)O)=C(SCCNC=N)C[C@H]12 [IMIPENEM ANHYDROUS] | 0.1 µg/mL (≈ 0.334 µM) | 0.4 µg/mL (≈ 1.34 µM) | 0.1 µg/mL (≈ 0.334 µM) | 0.008 µg/mL (≈ 0.0267 µM) | 0.1 µg/mL (≈ 0.334 µM) | 0.01 µg/mL (≈ 0.0334 µM) | 0.1 µg/mL (≈ 0.334 µM) | 0.008 µg/mL (≈ 0.0267 µM) | 8 µg/mL (≈ 26.7 µM) | < 0.008 µg/mL | 1 µg/mL (≈ 3.34 µM) | 0.09 µg/mL (≈ 0.301 µM) | 0.1 µg/mL (≈ 0.334 µM) | 2 µg/mL (≈ 6.68 µM) | 0.1 µg/mL (≈ 0.334 µM) | 0.2 µg/mL (≈ 0.668 µM) | 0.4 µg/mL (≈ 1.34 µM) | 0.3 µg/mL (≈ 1 µM) | 0.5 µg/mL (≈ 1.67 µM) | 1 µg/mL (≈ 3.34 µM) | Activity (Pseudomonas aeruginosa [26]): Active; MIC (Escherichia coli [21]): 0.25 µg/mL (≈ 0.835 µM); MIC (Pseudomonas aeruginosa [22]): 2 µg/mL (≈ 6.68 µM); Activity (Escherichia coli [24]): Active |
| C[C@@H](O)[C@H]1C(=O)N2C(C(=O)O)=C(S[C@@H]3CN[C@H](C(=O)N(C)C)C3)[C@H](C)[C@H]12 [MEROPENEM] | 0.05 µg/mL (≈ 0.13 µM) | 1.3 µg/mL (≈ 3.39 µM) | 0.6 µg/mL (≈ 1.56 µM) | 0.008 µg/mL (≈ 0.0209 µM) | 0.03 µg/mL (≈ 0.0782 µM) | 0.02 µg/mL (≈ 0.0522 µM) | 0.6 µg/mL (≈ 1.56 µM) | 0.008 µg/mL (≈ 0.0209 µM) | 0.6 µg/mL (≈ 1.56 µM) | 0.02 µg/mL (≈ 0.0522 µM) | > 4 µg/mL | 0.08 µg/mL (≈ 0.209 µM) | 0.5 µg/mL (≈ 1.3 µM) | 16 µg/mL (≈ 41.7 µM) | 0.06 µg/mL (≈ 0.156 µM) | 0.5 µg/mL (≈ 1.3 µM) | 4 µg/mL (≈ 10.4 µM) | 0.08 µg/mL (≈ 0.209 µM) | 1.7 µg/mL (≈ 4.43 µM) | 0.5 µg/mL (≈ 1.3 µM) | Activity (Pseudomonas aeruginosa [23]): Active; MIC (Escherichia coli [21]): 0.03 µg/mL (≈ 0.0782 µM); MIC (Pseudomonas aeruginosa [22]): 0.25 µg/mL (≈ 0.652 µM); Activity (Pseudomonas aeruginosa [27]): Active; Activity (Escherichia coli [24]): Active |
